# From PMC6597546, “Identification of a potent benzoxaborole drug candidate for treating cryptosporidiosis” (Nature Communications, 2019)
# “And” between values parts separate entries of the source, which are not always exact repeats. Identical values can stand only once. “Also recorded” adds a separate entry of the source. Like-named read-outs stand apart in the source and are kept apart here.
# Key:
# [1] = system: 109 off-target enzymes and receptors; assay: Lead Profiling and Adverse Reaction Enzyme off-target panel; type: binding; conditions: 10 µM
# Method: In vitro safety profiling studies were conducted by Ricerca Biosciences (Taipei, Taiwan) and WuXi AppTec (Suzhou, China). Ricerca performed a Lead Profiling and Adverse Reaction Enzyme panel of 109 off-target enzymes and receptors. This included the hERG K+ ion channel, which is associated with cardiac tachyarrhythmias, and used a radioligand binding competition format with 10 µM test compound for 1 h at 25 °C. For the enzyme and receptor panel, competitive inhibition at 10 µM of test compound was the most common assay format. The AMES bacterial reverse mutation assay detects point mutations in Escherichia coli and Salmonella typhimurium as an indicator of mutagenic activity. Bacterial strains were obtained from Molecular Toxicology (Boone, NC).
# CYP2C19 = CYP2C19 (Homo sapiens, UniProt P33261); assay: CYP450 inhibition 2C19; type: in vitro ADME
# Chain of CYP2C19 (P33261 whole entry): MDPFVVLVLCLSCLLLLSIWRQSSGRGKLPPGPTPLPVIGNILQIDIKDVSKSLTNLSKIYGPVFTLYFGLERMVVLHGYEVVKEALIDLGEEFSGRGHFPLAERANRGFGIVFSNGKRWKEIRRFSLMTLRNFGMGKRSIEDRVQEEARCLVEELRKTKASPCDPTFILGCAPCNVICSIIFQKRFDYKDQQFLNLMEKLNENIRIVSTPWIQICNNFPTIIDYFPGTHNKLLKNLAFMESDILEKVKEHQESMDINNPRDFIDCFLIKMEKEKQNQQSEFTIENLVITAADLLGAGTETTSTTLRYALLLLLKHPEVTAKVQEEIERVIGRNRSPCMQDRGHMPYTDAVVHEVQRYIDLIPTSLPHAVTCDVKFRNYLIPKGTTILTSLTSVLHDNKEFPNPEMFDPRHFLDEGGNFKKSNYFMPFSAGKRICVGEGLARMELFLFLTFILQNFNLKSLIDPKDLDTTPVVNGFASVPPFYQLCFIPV
# CYP2D6 = CYP2D6 (Homo sapiens, UniProt P10635); assay: CYP450 inhibition 2D6; type: in vitro ADME
# Chain of CYP2D6 (P10635 whole entry): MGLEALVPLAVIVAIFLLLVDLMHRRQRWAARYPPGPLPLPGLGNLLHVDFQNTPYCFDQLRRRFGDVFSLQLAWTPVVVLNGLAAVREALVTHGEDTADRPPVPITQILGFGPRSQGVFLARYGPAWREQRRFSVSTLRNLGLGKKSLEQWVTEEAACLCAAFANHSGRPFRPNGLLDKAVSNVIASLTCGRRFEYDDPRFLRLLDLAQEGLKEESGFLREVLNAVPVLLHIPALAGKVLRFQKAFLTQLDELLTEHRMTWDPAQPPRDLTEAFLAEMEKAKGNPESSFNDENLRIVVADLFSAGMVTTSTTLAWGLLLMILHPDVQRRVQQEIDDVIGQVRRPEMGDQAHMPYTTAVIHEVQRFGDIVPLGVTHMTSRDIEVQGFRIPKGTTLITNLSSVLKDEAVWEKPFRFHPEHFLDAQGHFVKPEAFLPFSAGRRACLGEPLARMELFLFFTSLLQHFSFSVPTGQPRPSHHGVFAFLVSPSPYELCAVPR
# [2] = Single-dose oral and intravenous murine PK; type: in vivo, female CD-1 mice; conditions: female, mouse, plasma, CD-1 mice
# Method: (§1) Single-dose oral and intravenous murine PK studies were performed by WuXi Biologics (Wuxi, China) in female CD-1 mice in compliance with animal care guidelines. […] Single-dose oral calf PK studies were performed at the University of Vermont in compliance with animal care guidelines and with approval from the University of Vermont Institutional Animal Care and Use Committee. […] Doses were squirted into the calves’ mouths during interruptions in bottle feeding. Fecal samples were collected at the indicated times by manual anal stimulation. […] Fecal AN7973 was measured by extracting AN7973 from homogenized feces with acetonitrile. For this, feces were added to 4 volumes of acetonitrile (4 mL per g), mixed by vortexing for 5 min at room temperature, and then centrifuged. […] The fecal extraction method was validated with a standard curve of compound added to control feces. […] Non-compartmental analysis of the mean concentration-time profiles was performed using Phoenix version 6.4 (Pharsight Corporation, Mountain View, CA, USA). Concentrations below the limit of quantitation were assigned values of zero for generation of mean concentrations. Predictions of multidose exposures were generated by non-parametric superposition of the single-dose PK data using Phoenix version 6.4 (Supplementary Fig. 5).
# [3] = system: C. parvum (University of Arizona Iowa isolate); type: in vivo, C57BL/6 IFN-γ−/− mice
# Method: Interferon gamma (IFN-γ) knockout mice were used to model acute Cryptosporidium infection. All IFN-γ knockout mouse studies were performed in compliance with animal care guidelines and were approved by the Explora BioLabs (San Diego, CA) Institutional Animal Care and Use Committee. Four-week-old female C57BL/6 IFN-γ^−/− mice with normal flora were purchased from The Jackson laboratory and acclimated for 3 days prior to infection by oral gavage with ∼10^6 C. parvum Iowa isolate oocysts (Sterling Laboratory, University of Arizona) suspended in sterile distilled water. At the indicated times following infection, mice were treated with compound vehicle alone, clofazimine (positive control), or once daily AN7973 at the indicated doses. Fecal parasite shedding was measured by isolating oocysts using sucrose gradient centrifugation. Sheather’s sucrose solution was freshly prepared by dissolving 156.25 g sucrose and 2.5 mL phenol in 100 mL water. Two sucrose solutions were prepared: (A) specific gravity of 1.103 (33% Sheather’s and 0.1% Tween 80 in PBS) and (B) specific gravity of 1.064 (20% Sheather’s and 0.1% Tween 80 in PBS). In a 2 mL microfuge tube, a gradient was prepared by laying 0.75 mL of solution A, then carefully laying 0.75 mL of solution B, slowly as to prevent mixing of the two layers. Fecal pellets were removed from storage, and homogenized by vortexing and pipetting. 0.2 mL fecal homogenate was overlaid on top of gradient in each microfuge tube. Oocysts were floated from feces by centrifugation at 1000 × g for 20 min and collected with a pipet tip from the 1.064/1.103 specific gravity interface between solutions A and B. Oocysts were rinsed once in cold PBS, pelleted by centrifugation at 15,000 × g for 10 min, and resuspended in PBS. Isolated oocysts were then stained with a fluorescein isothiocyanate-conjugated mouse anti-Cryptosporidium antibody (Bio-Rad catalog# 2402-3007 F; 0.25 µg per sample) and quantified using a Guava EasyCyte flow cytometer and CytoSoft data acquisition software (version 5.3; Guava Technologies, Inc.). Oocysts per milliliter of sample were normalized to counts per milligram of feces.
# Single-dose oral calf PK = type: in vivo, Holstein bull calves; conditions: calves, oral 5 mg per kg
# Method: as §1
# C. parvum = C. parvum growth inhibition in HCT-8 cells (follow-up assay, Vicia villosa lectin staining); type: cell-based, Cryptosporidium parvum
# Method: Follow-up assays were performed at the University of Vermont (UVM) and Calibr at Scripps Research by infection of the colonic adenocarcinoma cell line HCT-8 (ATCC CCL-244) and staining with the Vicia villosa lectin and DAPI[17],[32]. The FBS concentrations and parasites used for these assays were as indicated; parasite isolates and sources included C. parvum Iowa isolate oocysts purchased from Bunch Grass Farm (Deary, ID), C. parvum Iowa isolate oocysts purchased from the Sterling Laboratory (University of Arizona, Tucson, AZ), wild type C. parvum oocysts provided by Dr. Jenni Zambriski (Virginia Tech, Blacksburg, VA), and the C. hominis TU502 isolate purchased from Dr. Saul Tzipori (Tufts University Cummings School of Veterinary Medicine, North Grafton, MA). […] Amphotericin B (Sigma, catalog# A2942) was added to the culture media at 0.1 to 0.5 µg per mL for the DMC1 dose response assays.
# [4] = 2 mg/kg, intravenous 2 mg per kg
# [5] = male, Holstein, bovine, plasma, 5 mg/kg
smiles,measurement,setting,value
CC1(C)OB(O)c2cc(NC(=O)c3ccc(-n4cccn4)cc3Cl)ccc21 [AN7973],In vitro Receptor Panel (109 targets),[1],Negative; also recorded: no significant findings
same,inhibition at 10 µM,CYP2C19,27%
same,inhibition at 10 µM,CYP2D6,0%
same,AUC(0-inf),[2]; [4],49700 ng·h/mL
same,Cmax,[2]; [4],6820 ng/mL
same,clearance,[2]; [4],0.667 mL/min/kg
same,half-life,[2]; [4],6 h
same,AUC(0-inf),"[2]; 10 mg/kg, oral 10 mg per kg",92700 ng·h/mL
same,Cmax,"[2]; 10 mg/kg, oral 10 mg per kg",8630 ng/mL
same,half-life,"[2]; 10 mg/kg, oral 10 mg per kg",6.6 h
same,bioavailability,"[2]; 10 mg/kg, oral 10 mg per kg, read-out: bioavailability F",37%
same,"fecal oocyst shedding, individual mice","[3]; 10 mg/kg QD from day 4, day p.i. 8",5.45 and 13 (2×) and 10
same,"fecal oocyst shedding, individual mice","[3]; 10 mg/kg QD from day 4, day p.i. 14",11 and 15 (2×) and 21
same,"fecal oocyst shedding, individual mice","[3]; 25 mg/kg QD from day 4, day p.i. 7",3 (2×) and 6 and 9
same,efficacy in IFN-γ KO mouse,"[3]; 5, 10, 25 mg per kg once daily oral, efficacy at 10 mg per kg, maximal efficacy similar to clofazimine",dose-dependent efficacy
same,adverse effects in IFN-γ KO mice,"[3]; mouse, in vivo",no adverse effects
same,t1/2,Single-dose oral calf PK,31.1 h
same,AUC(0-inf),Single-dose oral calf PK; [5],190000 ng·h/mL
same,Cmax,Single-dose oral calf PK; [5],3570 ng/mL
same,half-life,"Single-dose oral calf PK; male, Holstein, bovine, plasma, po, 5 mg/kg",31 h
same,EC50,"C. parvum; Bunch Grass Farm (BGF) C. parvum Iowa isolate, HCT-8 cells, 48 h exposure, read-out: EC50",130 nM
same,EC50,"C. parvum; Cryptosporidium parvum, HCT-8, in Vicia villosa, 48 h, Bunch Grass Farm (BGF) C. parvum Iowa isolate, HCT-8 cells, 48 h exposure, read-out: EC50",130 to 430 nM
same,EC50,"C. parvum; Cryptosporidium parvum, HCT-8, in Vicia villosa, Iowa (BGF, 10%FBS), HCT-8, single replicates, unit inferred, read-out: In vitro efficacy (Fig 2b, EC50)",116 nM
same,EC50,"C. parvum; Cryptosporidium parvum, HCT-8, in Vicia villosa, read-out: In vitro efficacy (Fig 2b, EC50)",363 nM
same,EC90,"C. parvum; Cryptosporidium parvum, in Vicia villosa, BGF Iowa isolate, HCT-8",210 nM
same,EC50,"C. parvum; Field isolate (2%FBS), HCT-8, single replicates, unit inferred, read-out: In vitro efficacy (Fig 2b, EC50)",226 nM and 231 nM and 673 nM and 304 nM
same,EC50,"C. parvum; Iowa (BGF, 2%FBS), HCT-8, single replicates, unit inferred, read-out: In vitro efficacy (Fig 2b, EC50)",459 nM and 606 nM and 233 nM and 334 nM
same,EC50,"C. parvum; Iowa (BGF, 10%FBS), HCT-8, single replicates, unit inferred, read-out: In vitro efficacy (Fig 2b, EC50)",163 nM and 128 nM
same,EC50,"C. parvum; Iowa (Sterling Lab, 2%FBS), HCT-8, single replicates, unit inferred, read-out: In vitro efficacy (Fig 2b, EC50)",412 nM and 206 nM and 290 nM and 456 nM and 232 nM
same,"% inhibition, 0 - 48 h V. villosa lectin (asexual)",C. parvum; log [AN7973] 0.22,97.86% and 96.89%
same,"% inhibition, 0 - 48 h V. villosa lectin (asexual)",C. parvum; log [AN7973] 0.52,97.05% and 95.66%
same,"% inhibition, 0 - 48 h V. villosa lectin (asexual)",C. parvum; log [AN7973] 0.70,95.89% and 94.55%
same,"% inhibition, 0 - 48 h V. villosa lectin (asexual)",C. parvum; log [AN7973] 1.00,95.12% and 93.55%
same,"% inhibition, 0 - 48 h V. villosa lectin (asexual)",C. parvum; log [AN7973] -0.25,95.71% and 93.12%
same,"% inhibition, 0 - 48 h V. villosa lectin (asexual)",C. parvum; log [AN7973] -0.73,85.80% and 82.68%
same,"% inhibition, 0 - 48 h V. villosa lectin (asexual)",C. parvum; log [AN7973] -1.69,-8.97% and -7.81%
same,"% inhibition, 0 - 48 h V. villosa lectin (asexual)",C. parvum; log [AN7973] -2.16,-1.87% and -6.19%
